Measurements taken from patent publication US10149477B2, “Substituted pyrimidinium compounds for combating animal pests” (BASF SE, priority 2014, dated 2018).

What was measured:
Assay type in all cases: in vivo
[1] = tested on: green peach aphid (Myzus persicae); assay: Green peach aphid, systemic, artificial diet in 96-well microtiter plates; settings: 72 h, 3 days, read-out: mortality in comparison with untreated controls
Source text: a) For evaluating control of green peach aphid (Myzus persicae) through systemic means the test unit consisted of 96-well-microtiter plates containing liquid artificial diet under an artificial membrane.
The compounds were formulated using a solution containing 75% v/v water and 25% v/v DMSO. Different concentrations of formulated compounds were pipetted into the aphid diet, using a custom built pipetter, at two replications.
After application, 5-8 adult aphids were placed on the artificial membrane inside the microtiter plate wells. The aphids were then allowed to suck on the treated aphid diet and incubated at about 23±1° C. and about 50±5% relative humidity for 3 days. Aphid mortality and fecundity was then visually assessed.

[2] = tested on: green peach aphid (Myzus persicae); assay: Green peach aphid, spray on infested bell pepper plants; settings: 120 h, sprayed bell pepper plants, after 5 days, read-out: mortality in comparison with untreated controls
Protocol: b) The active compounds were formulated by a Tecan liquid handler in 100% cyclohexa-none as a 10,000 ppm solution supplied in tubes. The 10,000 ppm solution was serially diluted in 100% cyclohexanone to make interim solutions. These served as stock solu-tions for which final dilutions were made by the Tecan in 50% acetone:50% water (v/v) into 10 or 20 ml glass vials. A nonionic surfactant (Kinetic®) was included in the solution at a volume of 0.01% (v/v).
(§1) The vials were then inserted into an automated electrostatic sprayer equipped with an atomizing nozzle for application to plants/insects.
Bell pepper plants at the first true-leaf stage were infested prior to treatment by placing heavily infested leaves from the main colony on top of the treatment plants. Aphids were allowed to transfer overnight to accomplish an infestation of 30-50 aphids per plant and the host leaves were removed. The infested plants were then sprayed by an automated electrostatic plant sprayer equipped with an atomizing spray nozzle. The plants were dried in the sprayer fume hood, removed, and then maintained in a growth room under fluorescent lighting in a 24-hr photoperiod at about 25° C. and about 20-40% relative humidity. Aphid mortality on the treated plants, relative to mortality on untreated control plants, was determined after 5 days.

[3] = tested on: Orchid Thrips (Dichromothrips corbetti); assay: Orchid thrips, floral-immersion technique; settings: dipped orchid flowers, 72 hours after treatment, read-out: mortality in comparison with untreated controls
Protocol: Dichromothrips corbetti adults used for bioassay were obtained from a colony maintained continuously under laboratory conditions. For testing purposes, the test compound is diluted in a 1:1 mixture of acetone:water (vol:vol), plus 0.01% vol/vol Alkamuls® EL 620 surfactant.
Thrips potency of each compound was evaluated by using a floral-immersion technique. Plastic petri dishes were used as test arenas. All petals of individual, intact orchid flowers were dipped into treatment solution and allowed to dry. Treated flowers were placed into individual petri dishes along with about 20 adult thrips. The petri dishes were then covered with lids. All test arenas were held under continuous light and a temperature of about 28° C. for duration of the assay. After 3 days, the numbers of live thrips were counted on each flower, and along inner walls of each petri dish. The percent mortality was recorded 72 hours after treatment.

[4] = tested on: Rice Green Leafhopper (Nephotettix virescens); assay: Rice green leafhopper, sprayed rice seedlings; settings: after 72 hours, read-out: mortality in comparison with untreated controls
Protocol: Rice seedlings were cleaned and washed 24 hours before spraying. The active compounds were formulated in 50:50 acetone:water (vol:vol), and 0.1% vol/vol surfactant (EL 620) was added. Potted rice seedlings were sprayed with 5 ml test solution, air dried, placed in cages and inoculated with 10 adults. Treated rice plants were kept at about 28-29° C. and relative humidity of about 50-60%. Percent mortality was recorded after 72 hours.

[5] = tested on: Rice Brown Plant Hopper (Nilaparvata lugens); assay: Rice brown plant hopper, sprayed rice seedlings; settings: after 72 hours, read-out: mortality in comparison with untreated controls
Protocol: Rice seedlings were cleaned and washed 24 hours before spraying. The active compounds were formulated in 50:50 acetone:water (vol:vol) and 0.1% vol/vol surfactant (EL 620) was added. Potted rice seedlings were sprayed with 5 ml test solution, air dried, placed in cages and inoculated with 10 adults. Treated rice plants were kept at about 28-29° C. and relative humidity of about 50-60%. Percent mortality was recorded after 72 hours.

[6] = tested on: Cowpea Aphid (Aphis craccivora); assay: Cowpea aphid, spray on colonized cowpea plants; settings: sprayed cowpea plants, after 72 hours, read-out: mortality in comparison with untreated controls
Protocol: The active compound is dissolved at the desired concentration in a mixture of 1:1 (vol:vol) distilled water: acetone. Surfactant (Kinetic® HV) is added at a rate of 0.01% (vol/vol). The test solution is prepared at the day of use.
Potted cowpea plants were colonized with approximately 30-50 aphids of various stages by manually transferring a leaf tissue cut from infested plant 24 hours before application. Plants were sprayed with the test solutions using a DeVilbiss® hand atom-izer at 20-30 psi (=1.38 to 2.07 bar) after the pest population has been checked. Treat-ed plants are maintained on light carts at about 25-26° C. Percent mortality was assessed after 72 hours.

[7] = tested on: Cotton Aphid (Aphis gossypii); assay: Cotton aphid, spray on infested cotton plants; settings: 120 h, sprayed cotton plants, after 5 days, read-out: mortality in comparison with untreated controls
Protocol: The active compounds were formulated by a Tecan liquid handler in 100% cyclohexa-none as a 10,000 ppm solution supplied in tubes. The 10,000 ppm solution was serially diluted in 100% cyclohexanone to make interim solutions. These served as stock solu-tions for which final dilutions were made by the Tecan in 50% acetone:50% water (v/v) into 10 or 20 ml glass vials. A nonionic surfactant (Kinetic®) was included in the solution at a volume of 0.01% (v/v).
as §1
Cotton plants at the cotyledon stage were infested with aphids prior to treatment by placing a heavily infested leaf from the main aphid colony on top of each cotyledon. Aphids were allowed to transfer overnight to accomplish an infestation of 80-100 aphids per plant and the host leaf was removed. The infested plants were then sprayed by an automated electrostatic plant sprayer equipped with an atomizing spray nozzle. The plants were dried in the sprayer fume hood, removed from the sprayer, and then main-tained in a growth room under fluorescent lighting in a 24-hr photoperiod at 25° C. and 20-40% relative humidity. Aphid mortality on the treated plants, relative to mortality on untreated control plants, was determined after 5 days.

[8] = tested on: vetch aphid (Megoura viciae); assay: Vetch aphid, broad bean leaf disks in 24-well microtiter plates; settings: foliar, 120 h, sprayed leaf disks, 5 days, read-out: mortality in comparison with untreated controls
Protocol: For evaluating control of vetch aphid (Megoura viciae) through contact or systemic means the test unit consisted of 24-well-microtiter plates containing broad bean leaf disks.
The compounds were formulated using a solution containing 75% v/v water and 25% v/v DMSO. Different concentrations of formulated compounds were sprayed onto the leaf disks at 2.5 μl, using a custom built micro atomizer, at two replications.
After application, the leaf disks were air-dried and 5-8 adult aphids placed on the leaf disks inside the microtiter plate wells. The aphids were then allowed to suck on the treated leaf disks and incubated at about 23+1° C. and about 50+5% relative humidity for 5 days. Aphid mortality and fecundity was then visually assessed.

C[n+]1c([O-])c(-c2ccccc2)c(=O)n2c1SC(c1cnc(Cl)s1)C2 (centres unmarked) [compound 1]
> 75%: mortality at 2500 ppm [1] | mortality at 2500 ppm [2] | mortality at 500 ppm [3] | mortality at 500 ppm [4] | mortality at 500 ppm [5] | mortality at 500 ppm [6] | mortality at 300 ppm [7] | mortality at 2500 ppm [8]
